Results taken from patent US8962830B2, “Protein kinase inhibitors and methods of treatment” (The Walter and Eliza Hall Institute of Medical Research, priority 2010, dated 2015).

Target: T1, Src recombinant enzyme, N-terminally His6 tagged full-length human protein (Homo sapiens, UniProt P12931)
T1 construct: Src recombinant enzyme was purchased as N-terminally His6 tagged full-length human protein; His6 (N); purchased
Assay: SRC kinase inhibition assay (AlphaScreen)
Type: biochemical
Details: 80 μM ATP, 90 minutes at 30 degree Celsius
Protocol: Protocol for SRC Kinase Inhibition Assay. Compounds of the invention were tested for in vitro activity in the following assay: A biotin labeled peptide was used as substrate (amino acid sequence: Biotin-[…]). Src recombinant enzyme was purchased as N-terminally His6 tagged full-length human protein. The 15 μL assay reactions were run in Greiner brand white 384-well low volume plates. […] Compounds were added in a volume of 100 nL from dilution series made up in DMSO, positive and negative control reactions receiving the same volume DMSO without compounds. The plates were sealed with adhesive seals and incubated for 90 minutes at 30 degree Celsius. The reactions were stopped with the detection reagents added at the same time. Product formation was quantified as photochemiluminescence between PerkinElmer AlphaScreenTM beads, using Streptavidin-coated donor and anti-phosphotyrosine (P-[…]) acceptor beads. […] Plates were incubated for 5 hours before being read on a PerkinElmer EnVisionTM plate reader in HTS AlphascreenTM mode. IC50 values were obtained by calculating percent inhibition (% I) for each reaction relative to controls on the same plate (% [SMILES] where CN/CP are the averages of the negative/positive reactions, respectively), then fitting the % I data vs. compound concentration [I] to % I=([…])))) where A is the lower asymptote, B is the upper asymptote, C is the IC50 value, and D is the slope factor.

T1 sequence (P12931 whole entry): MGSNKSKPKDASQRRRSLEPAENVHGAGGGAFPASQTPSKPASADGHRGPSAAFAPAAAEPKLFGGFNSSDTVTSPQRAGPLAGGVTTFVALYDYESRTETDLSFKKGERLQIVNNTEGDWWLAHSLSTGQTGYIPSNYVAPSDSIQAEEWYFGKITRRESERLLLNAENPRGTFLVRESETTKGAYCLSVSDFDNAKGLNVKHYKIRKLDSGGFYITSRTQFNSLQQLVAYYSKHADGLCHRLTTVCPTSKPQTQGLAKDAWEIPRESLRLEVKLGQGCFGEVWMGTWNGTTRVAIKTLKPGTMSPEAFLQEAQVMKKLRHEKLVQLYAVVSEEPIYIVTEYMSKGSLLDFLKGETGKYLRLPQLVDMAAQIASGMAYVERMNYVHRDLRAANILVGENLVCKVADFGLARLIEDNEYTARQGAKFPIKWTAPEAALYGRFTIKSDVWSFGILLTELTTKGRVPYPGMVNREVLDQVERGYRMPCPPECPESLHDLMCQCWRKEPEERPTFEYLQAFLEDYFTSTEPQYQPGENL

IC50 [nM] | Structure (SMILES)
100 to 1000 | Cc1ccc(-c2nn(C(C)(C)CNC(=O)CCCCCN)c3ncnc(N)c23)cc1 [84 (compound 84C)]
100 to 1000 | Cc1ccc(-c2nn(C(C)(C)CNC(=O)c3ccccc3-n3ccnc3)c3ncnc(N)c23)cc1 [Example 14]
100 to 1000 | CC(=O)CCCC(=O)NCC(C)(C)n1nc(-c2ccc(C)cc2)c2c(N)ncnc21 [Example 31]
100 to 1000 | CCOc1ccc(C(=O)NCC(C)(C)n2nc(-c3ccc(C)cc3)c3c(N)ncnc32)cc1Cl [Example 32]
100 to 1000 | Cc1ccc(-c2nn(C(C)(C)CNC(=O)c3nc(Cl)ccc3Cl)c3ncnc(N)c23)cc1 [Example 48]
100 to 1000 | CCN(CC)c1ccc(C(=O)NCC(C)(C)n2nc(-c3ccc(C)cc3)c3c(N)ncnc32)cc1 [Example 38]
1 to 100 | Cc1ccc(-c2nn(C(C)(C)CNC(=O)c3cc(N4CCCCC4)ccn3)c3ncnc(N)c23)cc1 [69 (compound 69C)]
1 to 100 | Cc1ccc(-c2nn(C(C)(C)CNC(=O)c3ccc(CN)cc3)c3ncnc(N)c23)cc1 [13 (compound 13C)]
100 to 1000 | CC(=O)NCC(C)(C)n1nc(-c2ccc(C)cc2)c2c(N)ncnc21 [Example 2]
100 to 1000 | CC(=N)NCC(C)(C)n1nc(-c2ccc(C)cc2)c2c(N)ncnc21 [Example 80]
100 to 1000 | Cc1ccc(-c2nn(C(C)(C)CNC(=O)c3ccc(F)cc3)c3ncnc(N)c23)cc1 [Example 53]
1 to 100 | Cc1ccc(-c2nn(C(C)(C)CNC(=O)c3cnn(-c4cccc(Cl)c4)c3C(F)(F)F)c3ncnc(N)c23)cc1 [Example 26]
100 to 1000 | Cc1ccc(-c2nn(C(C)(C)CNC(=O)c3cccc(F)n3)c3ncnc(N)c23)cc1 [Example 41]
100 to 1000 | Cc1ccc(-c2nn(C(C)(C)CNC(=O)c3cnn(-c4ccc(Br)cc4)c3C(F)(F)F)c3ncnc(N)c23)cc1 [Example 29]
100 to 1000 | Cc1ccc(-c2nn(C(C)(C)CNC(=O)c3ccccc3F)c3ncnc(N)c23)cc1 [Example 54]
100 to 1000 | CC(=O)CCCCC(=O)NCC(C)(C)n1nc(-c2ccc(C)cc2)c2c(N)ncnc21 [Example 30]

IC50 [nM] | Structure (SMILES)
100 to 1000 | Cc1ccc(-c2nn(C(C)(C)CNC(=O)CCCOCc3ccccc3)c3ncnc(N)c23)cc1 [Example 35]
1 to 100 | Cc1ccc(-c2nn(C(C)(C)CNC(=N)N)c3ncnc(N)c23)cc1 [5 (compound 5B)]
100 to 1000 | Cc1ccc(-c2nn(C(C)(C)CNC(=O)CCCCCNC(=O)OCc3ccccc3)c3ncnc(N)c23)cc1 [Example 15]
1000 to 10000 | Cc1ccc(-c2nn(C(C)(C)CNC(=O)c3cccc(F)c3)c3ncnc(N)c23)cc1 [Example 55]
1 to 100 | COCCC(=O)NCC(C)(C)n1nc(-c2ccc(C)cc2)c2c(N)ncnc21 [Example 17]
1 to 100 | Cc1ccc(-c2nn(C(C)(C)CNC(=N)NC#N)c3ncnc(N)c23)cc1 [Example 81]
100 to 1000 | Cc1ccc(-c2nn(C(C)(C)CNC3=NCCN3)c3ncnc(N)c23)cc1 [Example 78]
100 to 1000 | Cc1ccc(-c2nn(C(C)(C)CNC(=O)c3ccnc(Cl)c3)c3ncnc(N)c23)cc1 [Example 43]
100 to 1000 | Cc1ccc(-c2nn(C(C)(C)CNC(=O)c3ccnnc3)c3ncnc(N)c23)cc1 [Example 46]
1000 to 10000 | Cc1ccc(-c2nn(C(C)(C)CNC(=O)c3nc(Cl)ccc3Br)c3ncnc(N)c23)cc1 [Example 49]
1000 to 10000 | Cc1ccc(-c2nn(C(C)(C)CNC(=O)c3ccc(Br)cn3)c3ncnc(N)c23)cc1 [Example 45]
1 to 100 | COCCOc1ccnc(C(=O)NCC(C)(C)n2nc(-c3ccc(C)cc3)c3c(N)ncnc32)c1 [Example 89]
100 to 1000 | Cc1ccc(-c2nn(C(C)(C)CNC(=O)CCCc3ccc4c(c3)OCCO4)c3ncnc(N)c23)cc1 [Example 36]
100 to 1000 | Cc1ccc(-c2nn(C(C)(C)CNC(=O)CCCN)c3ncnc(N)c23)cc1 [85 (compound 85C)]
100 to 1000 | Cc1ccc(-c2nn(C(C)(C)CNC(=O)c3cccc(C#N)c3)c3ncnc(N)c23)cc1 [Example 34]
